# Paper PMC5974244, “Tumour-associated missense mutations in the dMi-2 ATPase alters nucleosome remodelling properties in a mutation-specific manner” (Nature Communications, 2018)
# Experiments:
# dMi-2 [1] = biological target: T1, dMi-2 (Drosophila melanogaster, UniProt O97159, V538F); assay: nitrocellulose filter binding with [gamma-32P]ATP; details: labelled compound; same 90 nM protein, 0.25 mM MgCl2, 26 °C; printed as V558F (human CHD4 numbering)
# T1 construct: gene Mi-2; FLAG-tagged dMi-2 (no truncation stated), baculovirus / Sf9 cells, anti-FLAG purified, FLAG peptide elution
# T1 sequence (O97159 whole entry V538F, the tested form may be a part): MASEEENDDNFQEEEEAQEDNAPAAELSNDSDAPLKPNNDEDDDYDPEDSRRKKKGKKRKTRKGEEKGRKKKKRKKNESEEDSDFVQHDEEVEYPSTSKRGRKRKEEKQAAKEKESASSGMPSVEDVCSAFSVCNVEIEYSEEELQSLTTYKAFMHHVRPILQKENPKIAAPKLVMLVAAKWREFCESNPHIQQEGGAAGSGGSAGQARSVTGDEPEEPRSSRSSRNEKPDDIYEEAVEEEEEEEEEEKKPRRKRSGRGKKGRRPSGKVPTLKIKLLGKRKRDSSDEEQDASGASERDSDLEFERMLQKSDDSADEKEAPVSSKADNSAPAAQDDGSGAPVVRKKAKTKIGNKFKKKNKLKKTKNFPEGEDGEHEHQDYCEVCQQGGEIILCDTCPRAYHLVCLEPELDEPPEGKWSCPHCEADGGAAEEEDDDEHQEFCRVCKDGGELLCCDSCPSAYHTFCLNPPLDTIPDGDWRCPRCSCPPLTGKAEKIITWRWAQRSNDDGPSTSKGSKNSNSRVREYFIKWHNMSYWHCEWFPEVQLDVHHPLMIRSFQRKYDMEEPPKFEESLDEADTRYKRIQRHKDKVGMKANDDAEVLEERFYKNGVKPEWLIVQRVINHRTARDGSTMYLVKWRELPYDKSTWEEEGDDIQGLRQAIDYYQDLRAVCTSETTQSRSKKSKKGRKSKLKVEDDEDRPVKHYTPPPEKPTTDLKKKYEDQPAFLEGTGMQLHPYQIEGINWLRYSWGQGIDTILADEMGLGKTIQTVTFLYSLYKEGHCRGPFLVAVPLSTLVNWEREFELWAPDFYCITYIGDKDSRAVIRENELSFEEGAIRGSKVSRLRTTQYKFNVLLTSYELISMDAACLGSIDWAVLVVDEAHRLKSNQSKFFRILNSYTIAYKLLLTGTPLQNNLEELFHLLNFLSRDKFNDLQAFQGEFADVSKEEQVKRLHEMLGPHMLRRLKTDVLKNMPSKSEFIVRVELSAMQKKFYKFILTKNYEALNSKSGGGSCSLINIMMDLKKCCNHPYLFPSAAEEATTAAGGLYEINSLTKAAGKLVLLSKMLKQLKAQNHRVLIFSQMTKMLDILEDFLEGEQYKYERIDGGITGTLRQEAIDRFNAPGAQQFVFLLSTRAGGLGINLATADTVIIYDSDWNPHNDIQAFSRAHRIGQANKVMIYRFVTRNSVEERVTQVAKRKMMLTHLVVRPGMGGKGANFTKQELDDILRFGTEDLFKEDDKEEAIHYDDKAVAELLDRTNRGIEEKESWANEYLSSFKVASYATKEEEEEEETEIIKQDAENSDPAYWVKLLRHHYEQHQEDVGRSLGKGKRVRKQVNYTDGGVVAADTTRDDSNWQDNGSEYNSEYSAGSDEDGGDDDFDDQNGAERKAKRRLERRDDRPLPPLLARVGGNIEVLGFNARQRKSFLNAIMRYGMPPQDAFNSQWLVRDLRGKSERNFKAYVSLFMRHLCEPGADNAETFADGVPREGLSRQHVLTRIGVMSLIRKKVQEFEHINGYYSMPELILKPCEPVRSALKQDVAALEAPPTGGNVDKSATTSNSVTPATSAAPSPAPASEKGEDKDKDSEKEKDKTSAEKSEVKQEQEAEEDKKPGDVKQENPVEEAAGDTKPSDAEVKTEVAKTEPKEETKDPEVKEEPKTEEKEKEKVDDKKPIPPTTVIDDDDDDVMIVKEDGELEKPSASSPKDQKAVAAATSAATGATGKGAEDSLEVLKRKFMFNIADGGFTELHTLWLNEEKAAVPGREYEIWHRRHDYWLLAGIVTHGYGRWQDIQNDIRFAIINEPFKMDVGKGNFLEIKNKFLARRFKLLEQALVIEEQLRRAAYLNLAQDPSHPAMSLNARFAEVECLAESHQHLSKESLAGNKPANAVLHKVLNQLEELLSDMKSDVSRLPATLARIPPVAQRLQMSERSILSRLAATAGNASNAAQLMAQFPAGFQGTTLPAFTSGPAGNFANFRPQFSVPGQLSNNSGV
# dMi-2 [2] = biological target: T2, dMi-2 (Drosophila melanogaster, UniProt O97159); assay: nitrocellulose filter binding with [gamma-32P]ATP; details: labelled compound; 90 nM protein, 0.25 mM MgCl2, 100 mM KCl, 20 mM HEPES, 26 °C; competition by cold ATP
# T2 construct: gene Mi-2; FLAG-tagged dMi-2 (no truncation stated), baculovirus / Sf9 cells, anti-FLAG purified, FLAG peptide elution
# T2 sequence (O97159 whole entry, the tested form may be a part): as the sequence (O97159 whole entry V538F, the tested form may be a part) above, with F538V counted along it
# dMi-2 [3] = biological target: T3, dMi-2 (Drosophila melanogaster, UniProt O97159, R1164Q); assay: nitrocellulose filter binding with [gamma-32P]ATP; details: labelled compound; same 90 nM protein, 0.25 mM MgCl2, 26 °C; printed as R1162Q (human CHD4 numbering)
# T3 construct: gene Mi-2; FLAG-tagged dMi-2 (no truncation stated), baculovirus / Sf9 cells, anti-FLAG purified, FLAG peptide elution
# T3 sequence (O97159 whole entry R1164Q, the tested form may be a part): as the sequence (O97159 whole entry V538F, the tested form may be a part) above, with F538V, R1164Q counted along it
# dMi-2 [4] = biological target: T4, dMi-2 (Drosophila melanogaster, UniProt O97159, L914V); assay: nitrocellulose filter binding with [gamma-32P]ATP; details: labelled compound; same 90 nM protein, 0.25 mM MgCl2, 26 °C; printed as L912V (human CHD4 numbering)
# T4 construct: gene Mi-2; FLAG-tagged dMi-2 (no truncation stated), baculovirus / Sf9 cells, anti-FLAG purified, FLAG peptide elution
# T4 sequence (O97159 whole entry L914V, the tested form may be a part): as the sequence (O97159 whole entry V538F, the tested form may be a part) above, with F538V, L914V counted along it
# dMi-2 [5] = biological target: T5, dMi-2 (Drosophila melanogaster, UniProt O97159, R552Q); assay: nitrocellulose filter binding with [gamma-32P]ATP; details: labelled compound; same 90 nM protein, 0.25 mM MgCl2, 26 °C; printed as R572Q (human CHD4 numbering; also as R572Y in places, primer encodes Q)
# T5 construct: gene Mi-2; FLAG-tagged dMi-2 (no truncation stated), baculovirus / Sf9 cells, anti-FLAG purified, FLAG peptide elution
# T5 sequence (O97159 whole entry R552Q, the tested form may be a part): as the sequence (O97159 whole entry V538F, the tested form may be a part) above, with F538V, R552Q counted along it
# dMi-2 [6] = biological target: T6, dMi-2 (Drosophila melanogaster, UniProt O97159, C452Y); assay: nitrocellulose filter binding with [gamma-32P]ATP; details: labelled compound; same 90 nM protein, 0.25 mM MgCl2, 26 °C; printed as C464Y (human CHD4 numbering)
# T6 construct: gene Mi-2; FLAG-tagged dMi-2 (no truncation stated), baculovirus / Sf9 cells, anti-FLAG purified, FLAG peptide elution
# T6 sequence (O97159 whole entry C452Y, the tested form may be a part): as the sequence (O97159 whole entry V538F, the tested form may be a part) above, with C452Y, F538V counted along it
# dMi-2 [7] = biological target: T7, dMi-2 (Drosophila melanogaster, UniProt O97159, H1153R); assay: nitrocellulose filter binding with [gamma-32P]ATP; details: labelled compound; same 90 nM protein, 0.25 mM MgCl2, 26 °C; printed as H1151R (human CHD4 numbering)
# T7 construct: gene Mi-2; FLAG-tagged dMi-2 (no truncation stated), baculovirus / Sf9 cells, anti-FLAG purified, FLAG peptide elution
# T7 sequence (O97159 whole entry H1153R, the tested form may be a part): as the sequence (O97159 whole entry V538F, the tested form may be a part) above, with F538V, H1153R counted along it
# dMi-2 [8] = biological target: T2, dMi-2; assay: ATPase assay, TLC of [gamma-32P]ATP; type: biochemical; details: labelled compound as tracer; 20 µM ATP, saturating polynucleosomes, 26 °C, 30 min
# dMi-2 [9] = biological target: T8, dMi-2 (Drosophila melanogaster, UniProt O97159, H1198Y); assay: nitrocellulose filter binding with [gamma-32P]ATP; details: labelled compound; same 90 nM protein, 0.25 mM MgCl2, 26 °C; printed as H1196Y (human CHD4 numbering)
# T8 construct: gene Mi-2; FLAG-tagged dMi-2 (no truncation stated), baculovirus / Sf9 cells, anti-FLAG purified, FLAG peptide elution
# T8 sequence (O97159 whole entry H1198Y, the tested form may be a part): as the sequence (O97159 whole entry V538F, the tested form may be a part) above, with F538V, H1198Y counted along it
# dMi-2 [10] = biological target: T9, dMi-2 (Drosophila melanogaster, UniProt O97159, L1217P); assay: nitrocellulose filter binding with [gamma-32P]ATP; details: labelled compound; same 90 nM protein, 0.25 mM MgCl2, 26 °C; printed as L1215P (human CHD4 numbering)
# T9 construct: gene Mi-2; FLAG-tagged dMi-2 (no truncation stated), baculovirus / Sf9 cells, anti-FLAG purified, FLAG peptide elution
# T9 sequence (O97159 whole entry L1217P, the tested form may be a part): as the sequence (O97159 whole entry V538F, the tested form may be a part) above, with F538V, L1217P counted along it
compound,measurement,setting,value
Nc1ncnc2c1ncn2[C@@H]1O[C@H](COP(=O)(O)OP(=O)(O)OP(=O)(O)O)[C@@H](O)[C@H]1O [ATP],% of WT ATP binding activity,dMi-2 [1],Most dMi-2 mutants displayed robust ATP binding activity
same,nitrocellulose filter binding with [gamma-32P]ATP,dMi-2 [2],Binding of WT dMi-2 to radioactively labelled ATP was efficiently competed by an excess of
same,% of WT ATP binding activity,dMi-2 [3],Most dMi-2 mutants displayed robust ATP binding activity
same,% of WT ATP binding activity,dMi-2 [4],Most dMi-2 mutants displayed robust ATP binding activity
same,% of WT binding activity,dMi-2 [5],32%
same,% of WT ATP binding activity,dMi-2 [6],Most dMi-2 mutants displayed robust ATP binding activity
same,% of WT ATP binding activity,dMi-2 [7],Most dMi-2 mutants displayed robust ATP binding activity
same,"ATPase assay, TLC of [gamma-32P]ATP",dMi-2 [8],We performed ATPase assays in the absence or presence of saturating amounts of salt dialysis-assembled
same,% of WT ATP binding activity,dMi-2 [9],Most dMi-2 mutants displayed robust ATP binding activity
same,% of WT ATP binding activity,dMi-2 [10],Most dMi-2 mutants displayed robust ATP binding activity
